According to US20050209157A1, “Short bioactive peptides and methods for their use” (priority 2001, published 2005):
≈ marks a conversion by molar mass, not a printed value. Where two headings read alike, the source gives them in different places. Non-standard residues stand in square brackets, D forms with d. Residues, ends and D or L forms follow the SMILES beside them. No end group written: not given here.

Assays:
[1] = test system: Stapholococcus aureus ATCC 25923; experiment: Antimicrobial assay I, modified protocol (tryptic soy broth), MBC; details: minimum bactericidal concentration, Table 4
[2] = test system: Candida albicans ATCC 10231; experiment: Antimicrobial assay I, modified protocol (tryptic soy broth), MFC; details: minimum fungicidal concentration, Table 4
[3] = test system: Pseudomonas aeruginosa ATCC 27853; experiment: Antimicrobial assay I, modified protocol (tryptic soy broth), MBC; details: minimum bactericidal concentration, Table 4
Procedure: (§1) The preparation of all media, stock solutions, and dilutions took place in a laminar flow hood to prevent contamination. Bacterial cells were freshly grown on antibiotic medium 2 agar slants (pH 7.0 at 25° C.). Bacteria were suspended and diluted in antibiotic medium 3 to about 10^4 cfu/ml and used as the inoculum. Sample solutions (100 μl/well) were added to plates according to the plate layout. Inoculum (100 μl/well) was added to achieve a final concentration of 5×10^3 cfu/ml. Negative controls received 100 μl saline and 100 μl growth medium. Positive controls received 100 μl saline and 100 μl inoculum. Bacterial plates were incubated at 37° C. for 24 hours.
(§2) However, the data for Table 4 were obtained with a modified protocol wherein the medium was tryptic soy broth, inocolum strength was approximately 10^4 CFU per ml, and values determined were minimum bactericidal concentrations (MBC) or minimum fungicidal concentrations (MFC).
(§3) MBC or MFC values are in μg/mL. E. coli is Escherichia coli ATCC accession number 25922; P. aerug is Pseudomonas aeruginosa ATCC accession number 27853, S. aur. is Stapholococcus aureus ATCC accession number 25923; Candida is Candida albicans ATCC accession number 10231.

[4] = test system: Escherichia coli ATCC 25922; experiment: as above; details: minimum bactericidal concentration, Table 4
Procedure: as §1, §2, §3

[5] = test system: cancer cell lines; experiment: Anti-cancer assays, MTT, summary over the cancer cell lines; format: cell-based; details: X = preferred
[6] = test system: WI38; details: Table 27
[7] = test system: Pseudomonas aeruginosa ATCC 9027; experiment: Antimicrobial assay I, MIC by OD measurement; format: cell-based
[8] = test system: fungal; experiment: Presently preferred antifungal peptides, selected from the MIC/MBC data; format: cell-based; details: X = preferred
Excerpt: The peptide's “length” is the number of amino acid residues in the sequence.

[9] = in vitro; format: cell-based, human; details: human, human red blood cells
[10] = in vitro; details: human, WI38 normal lung fibroblast cells, WI-38 LD50, Table 26, valine substitution
[11] = pH 7, Table 26, valine substitution, read-out: Hemolysis RBC LD50

Compound	MBC S. aur A.25923 [1]	MFC Candida A.10231 [2]	MBC P. aerug A.27853 [3]	MBC E. coli A.25922 [4]	Anti-cancer (preferred peptide) [5]	WI38 LD50 [6]	P. aerug (MIC) [7]	Anti-fungal (preferred peptide) [8]	HC50 at 1 h [9, 11]	HC50 at 1 h ([9]; pH 7, Table 27, read-out: Hemolysis (LD50))	CC50 at 24 h [10]
FAKKLAKLALKLAKL-NH2 [compound 44]	30 µg/mL	>50 µg/mL	55 µg/mL	10 µg/mL	X (Preferred anticancer peptides can be selected as having LD50 values of less than or equal to about 25 μg/ml)	–	–	–	–	–	–
FAKLLAKLAKKVL-NH2 [compound 124]	8 µg/mL	15 µg/mL	40 µg/mL	10 µg/mL	X (Preferred anticancer peptides can be selected as having LD50 values of less than or equal to about 25 μg/ml)	21 µg/mL	100 µg/mL	X (Preferred antifungal peptides can be selected as having MIC or MBC values of less than or equal to about 25 μg/ml)	55 µg/mL	300 µg/mL	21 µg/mL
FALAAKALKKLAKKLKKLAKKAL-NH2 [compound 23]	30 µg/mL	>50 µg/mL	25 µg/mL	15 µg/mL	X (Preferred anticancer peptides can be selected as having LD50 values of less than or equal to about 25 μg/ml)	–	–	–	–	–	–
FAKLLALALKLKL-NH2 [compound 94]	>50 µg/mL	>50 µg/mL	>50 µg/mL	>50 µg/mL	X (Preferred anticancer peptides can be selected as having LD50 values of less than or equal to about 25 μg/ml)	–	–	–	–	–	–
FAKKALKALKKL-NH2 [compound 47]	>50 µg/mL	>50 µg/mL	>50 µg/mL	>50 µg/mL	X (Preferred anticancer peptides can be selected as having LD50 values of less than or equal to about 25 μg/ml)	–	–	–	–	–	–
FALALKKALKALKKAL-NH2 [compound 34]	40 µg/mL	>40 µg/mL	15 µg/mL	15 µg/mL	X (Preferred anticancer peptides can be selected as having LD50 values of less than or equal to about 25 μg/ml)	–	–	X (Preferred antifungal peptides can be selected as having MIC or MBC values of less than or equal to about 25 μg/ml)	–	–	–
FAKLLAKALKKLL-NH2 [compound 55]	4 µg/mL	25 µg/mL	10 µg/mL	4 µg/mL	X (Preferred anticancer peptides can be selected as having LD50 values of less than or equal to about 25 μg/ml)	–	–	X (Preferred antifungal peptides can be selected as having MIC or MBC values of less than or equal to about 25 μg/ml)	20 µg/mL	–	32 µg/mL
CC(C)C[C@H](NC(=O)[C@H](C)NC(=O)[C@H](CC(C)C)NC(=O)[C@H](C)NC(=O)[C@H](CC(C)C)NC(=O)[C@H](CCCCN)NC(=O)[C@H](C)NC(=O)[C@H](CC(C)C)NC(=O)[C@H](CCCCN)NC(=O)[C@H](CCCCN)NC(=O)[C@H](C)NC(=O)[C@H](CC(C)C)NC(=O)[C@H](CCCCN)NC(=O)[C@H](C)NC(=O)[C@H](CC(C)C)NC(=O)[C@H](CCCCN)NC(=O)[C@H](CCCCN)NC(=O)[C@H](C)NC(=O)[C@@H](N)Cc1ccccc1)C(N)=O [compound 36]	10 µg/mL (≈ 4.91 µM)	>40 µg/mL	15 µg/mL (≈ 7.36 µM)	30 µg/mL (≈ 14.7 µM)	X (Preferred anticancer peptides can be selected as having LD50 values of less than or equal to about 25 μg/ml)	–	–	–	12 µg/mL	–	19 µg/mL (≈ 9.32 µM)
FALALKALKKLKKALKKAL-OH [27B]	>40 µg/mL	>40 µg/mL	10 µg/mL	40 µg/mL	X (Preferred anticancer peptides can be selected as having LD50 values of less than or equal to about 25 μg/ml)	–	–	X (Preferred antifungal peptides can be selected as having MIC or MBC values of less than or equal to about 25 μg/ml)	–	–	–
FAKALAKLAKKLL-NH2 [compound 92]	15 µg/mL	25 µg/mL	25 µg/mL	40 µg/mL	X (Preferred anticancer peptides can be selected as having LD50 values of less than or equal to about 25 μg/ml)	–	–	X (Preferred antifungal peptides can be selected as having MIC or MBC values of less than or equal to about 25 μg/ml)	–	–	–
FAKKLAKKLAKLL-NH2 [compound 75]	>55 µg/mL	30 µg/mL	30 µg/mL	40 µg/mL	X (Preferred anticancer peptides can be selected as having LD50 values of less than or equal to about 25 μg/ml)	–	–	–	–	–	–
FAKKLAKKLKKLAKKLAKKWKL-NH2 [compound 70]	40 µg/mL	>50 µg/mL	30 µg/mL	40 µg/mL	X (Preferred anticancer peptides can be selected as having LD50 values of less than or equal to about 25 μg/ml)	–	–	–	–	–	–
CC(C)C[C@H](NC(=O)[C@H](C)NC(=O)[C@H](CCCCN)NC(=O)[C@H](CCCCN)NC(=O)[C@H](CC(C)C)NC(=O)[C@H](C)NC(=O)[C@H](CCCCN)NC(=O)[C@H](CCCCN)NC(=O)[C@H](CC(C)C)NC(=O)[C@@H](CCCCN)NC(=O)[C@@H](CCCCN)NC(=O)[C@H](CC(C)C)NC(=O)[C@H](C)NC(=O)[C@H](CCCCN)NC(=O)[C@H](CCCCN)NC(=O)[C@H](CC(C)C)NC(=O)[C@H](C)NC(=O)[C@H](CCCCN)NC(=O)[C@H](CC(C)C)NC(=O)[C@H](C)NC(=O)[C@H](CC(C)C)NC(=O)[C@H](C)NC(=O)[C@@H](N)Cc1ccccc1)C(=O)O [compound 37] (H-FALALKALKKAL[dK][dK]LKKALKKAL-OH; N-terminus assumed)	40 µg/mL (≈ 15.8 µM)	>50 µg/mL	8 µg/mL (≈ 3.15 µM)	8 µg/mL (≈ 3.15 µM)	X (Preferred anticancer peptides can be selected as having LD50 values of less than or equal to about 25 μg/ml)	–	–	–	–	–	–
FALALKALKKALKKLKKALKKAL-OH [compound 1]	25 µg/mL	>50 µg/mL	30 µg/mL	25 µg/mL	X (Preferred anticancer peptides can be selected as having LD50 values of less than or equal to about 25 μg/ml)	–	–	–	20 µg/mL	–	27 µg/mL
FALAKLAKKAKAKLKKALKAL-NH2 [compound 26]	>40 µg/mL	>50 µg/mL	>40 µg/mL	>80 µg/mL	X (Preferred anticancer peptides can be selected as having LD50 values of less than or equal to about 25 μg/ml)	–	–	X (Preferred antifungal peptides can be selected as having MIC or MBC values of less than or equal to about 25 μg/ml)	–	–	–
